Experiments:
[1] = test system: EtaA; settings: pH 7.5; cited from earlier work
[2] = oral administration of therapeutic doses; ref Conte et al., 2000; cited from earlier work
[3] = test system: mFmos and hFMOs; settings: 4 mM GSH added following 15 minutes of incubation; 200 μM ETA
[4] = test system: mouse lung microsomes; test: Effect of inhibitors on S-oxidation of ETA by mouse lung microsomes; format: in vitro ADME; settings: 200 μM ETA
[5] = test system: mouse liver microsomes; test: Effect of inhibitors on S-oxidation of ETA by mouse liver microsomes; format: in vitro ADME; settings: 200 μM ETA

SMILES: CCc1cc(C(N)=S)ccn1 [ETA, ethionamide]
- specificity constant for the formation of ETASO [1]: 0.04
- concentration of ETA in human plasma [2]: approximately 6 μM
- concentration of ETA in lung alveolar cells [2]: ~2.4 µM
- concentration of ETA in lung epithelial lining fluid [2]: ~35 µM

SMILES: N[C@@H](CCC(=O)N[C@@H](CS)C(=O)NCC(=O)O)C(=O)O [GSH, Glutathione]
- ETASO removed [3]: ~50%

SMILES: CCCC(C(=O)OCCN(CC)CC)(c1ccccc1)c1ccccc1 [SKF-525A]
- activity remaining (appearance of ETASO) ([4]; SKF-525A 1 mM): 102.4%
- activity remaining (appearance of ETASO) ([5]; SKF-525A 1 mM): 82.9%

SMILES: NC(N)=S [thiourea]
- reduction of ETA oxygenation to ETASO ([4]; thiourea 200 μM, average): 76.9%
- reduction of ETA oxygenation to ETASO ([5]; thiourea 200 μM, average): 73.5%

Reference: PMC2626250 (Toxicology and applied pharmacology, 2008)
